Biological target: T1, human HAQ STING isoform (hSTING HAQ) (Homo sapiens, UniProt Q86WV6, G230A/H232R/R293Q/R71H)
T1 construct: THP1 cells express the naturally occurring human HAQ STING isoform (hSTING HAQ); host or cells: THP1
Assay: IFN-β mRNA level in THP1 cells (qPCR, STING agonist cellular activity)
Type: cell-based
Settings: compound at 3.6 μM, 2 hrs, IFNβ expression normalized against GAPDH by the 2^-ΔΔCT method, DMSO = 1.0
How it was run: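 THP1 cells were seeded at 9×10^5 per well, incubated overnight, then treated with compound at 3.6 μM final (0.1% DMSO control) for 2 hrs at 37 °C. IFN-β mRNA was measured by SYBR Green qPCR, normalised to GAPDH by the 2^−ΔΔCT method, in triplicate.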

T1 sequence (Q86WV6 whole entry R71H/G230A/H232R/R293Q, canonical isoform): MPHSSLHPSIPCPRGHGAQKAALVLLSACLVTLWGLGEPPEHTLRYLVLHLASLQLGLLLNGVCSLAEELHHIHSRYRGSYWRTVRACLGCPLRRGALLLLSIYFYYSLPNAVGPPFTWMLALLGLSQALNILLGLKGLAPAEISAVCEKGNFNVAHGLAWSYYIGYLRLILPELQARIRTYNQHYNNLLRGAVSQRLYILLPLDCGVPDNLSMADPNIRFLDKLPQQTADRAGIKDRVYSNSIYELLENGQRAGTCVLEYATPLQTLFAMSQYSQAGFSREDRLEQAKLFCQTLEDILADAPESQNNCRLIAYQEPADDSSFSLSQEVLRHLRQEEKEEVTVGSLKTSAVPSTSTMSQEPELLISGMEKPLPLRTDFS

Compound | Relative mRNA INFβ/GAPDH THP 1
COc1cc(CN(Cc2cn3c4c(c(C5=CCN(C6CC6)CC5)c(F)cc4c2=O)OCC3C)[C@H]2CCCN(c3ccc(N)nc3)C2)ccn1 (stereo partly drawn) [Compound 59, 6-((((S)-1-(6-aminopyridin-3-yl)piperidin-3-yl)((2-methoxypyridin-4-yl)methyl)amino)methyl)-10-(1-cyclopropyl-1,2,3,6-tetrahydropyridin-4-yl)-9-fluoro-3-methyl-2H-[1,4]oxazino[2,3,4-ij]quinolin-7(3H)-one] | 316.7
COc1cc(CN(Cc2cn3c4c(c(N5CCCCC5=O)c(F)cc4c2=O)OCC3C)[C@H]2CCCN(c3ccc(N)nc3)C2)ccn1 (stereo partly drawn) [Compound 60, 6-((((S)-1-(6-aminopyridin-3-yl)piperidin-3-yl)((2-methoxypyridin-4-yl)methyl)amino)methyl)-9-fluoro-3-methyl-10-(2-oxopiperidin-1-yl)-2H-[1,4]oxazino[2,3,4-ij]quinolin-7(3H)-one] | 174.3
COc1cc(CN(Cc2cn3c4c(c(N5CCCCC5=O)c(F)cc4c2=O)OCC3C)[C@H]2CCCN(c3ccc(N)nc3)C2)ccn1 (stereo partly drawn) [Compound 61, 6-((((S)-1-(6-aminopyridin-3-yl)piperidin-3-yl)((2-methoxypyridin-4-yl)methyl)amino)methyl)-9-fluoro-3-methyl-10-(2-oxopiperidin-1-yl)-2H-[1,4]oxazino[2,3,4-ij]quinolin-7(3H)-one] | 0.7
COc1cc(CN(Cc2cn3c4c(c(OCc5ccccc5)c(F)cc4c2=O)OCC3C)[C@H]2CCCN(c3ccc(N)nc3)C2)ccn1 (stereo partly drawn) [Compound 62, 6-((((S)-1-(6-aminopyridin-3-yl)piperidin-3-yl)((2-methoxypyridin-4-yl)methyl)amino)methyl)-10-(benzyloxy)-9-fluoro-3-methyl-2H-[1,4]oxazino[2,3,4-ij]quinolin-7(3H)-one] | 915.2
COc1cc(CN(Cc2cn3c4c(c(O)c(F)cc4c2=O)OCC3C)[C@H]2CCCN(c3ccc(N)nc3)C2)ccn1 (stereo partly drawn) [Compound 63, 6-((((S)-1-(6-aminopyridin-3-yl)piperidin-3-yl)((2-methoxypyridin-4-yl)methyl)amino)methyl)-9-fluoro-10-hydroxy-3-methyl-2H-[1,4]oxazino[2,3,4-ij]quinolin-7(3H)-one] | 2.5
COc1cc(CN(Cc2cn3c4c(c(-c5ccc(CCO)cn5)c(F)cc4c2=O)OCC3C)[C@H]2CCCN(c3ccc(N)nc3)C2)ccn1 (stereo partly drawn) [Compound 64, 6-((((S)-1-(6-aminopyridin-3-yl)piperidin-3-yl)((2-methoxypyridin-4-yl)methyl)amino)methyl)-9-fluoro-10-(5-(2-hydroxyethyl)pyridin-2-yl)-3-methyl-2H-[1,4]oxazino[2,3,4-ij]quinolin-7(3H)-one] | 26.6
COc1cc(CN(Cc2cn3c4c(c(F)c(F)cc4c2=O)OCC3)[C@H]2CCCN(c3ccc([N+](=O)[O-])nc3)C2)ccn1 [Compound 65, (S)-9,10-difluoro-6-((((2-methoxypyridin-4-yl)methyl)(1-(6-nitropyridin-3-yl)piperidin-3-yl)amino)methyl)-2,3-dihydro-7H-[1,4]oxazino[2,3,4-ij]quinolin-7-one] | 7.4
Nc1ccc(N2CCC[C@H](N(Cc3ccncc3)Cc3cn4c5c(c(F)c(F)cc5c3=O)OCC4)C2)cn1 [Compound 70, (S)-6-(((1-(6-aminopyridin-3-yl)piperidin-3-yl)(pyridin-4-ylmethyl)amino)methyl)-9,10-difluoro-2,3-dihydro-7H-[1,4]oxazino[2,3,4-ij]quinolin-7-one] | 6236.9
Cc1cc(CN(Cc2cn3c4c(c(F)c(F)cc4c2=O)OCC3)[C@H]2CCCN(c3ccc(N)nc3)C2)ccn1 [Compound 71, (S)-6-(((1-(6-aminopyridin-3-yl)piperidin-3-yl)((2-methylpyridin-4-yl)methyl)amino)methyl)-9,10-difluoro-2,3-dihydro-7H-[1,4]oxazino[2,3,4-ij]quinolin-7-one] | 6763.7

— patent US20250171461A1, “STIMULATOR OF INTERFERON GENES (STING) MODULATORS, AND COMPOSITIONS AND METHODS THEREOF” (Geode Therapeutics Inc., priority 2022, published 2025)
